In the supplement of paper PMC10307832:

Columns and labels:
Assay in all cases: relative viability (nuclei count vs DMSO), 5 days (fraction); higher = more cells survive
[1] = compound: C1=CC2=NC=CN=C2C=C1/C=C/3\C(=O)NC(=O)S3 + O=C(CCCCCCC(=O)Nc1ccccc1)NO [Vorinostat] (partner 1 µM)
Outline: (§1)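 Lung cancer cell lines were pin-tool dosed in 1536-well plates on the day after seeding, with either a lone drug or a fixed anchor-drug dose plus five library-drug doses (not always all listed) in √10 steps. Nuclei were counted on 4× images after 5 days. Relative viability is the ratio of treated-well to vehicle-well nuclei counts, with each value a median of duplicate plates.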

BGJ398 + Navitoclax = compound: CCN1CCN(c2ccc(Nc3cc(N(C)C(=O)Nc4c(Cl)c(OC)cc(OC)c4Cl)ncn3)cc2)CC1 [BGJ398] + CC1(C)CCC(c2ccc(Cl)cc2)=C(CN2CCN(c3ccc(C(=O)NS(=O)(=O)c4ccc(N[C@H](CCN5CCOCC5)CSc5ccccc5)c(S(=O)(=O)C(F)(F)F)c4)cc3)CC2)C1 [Navitoclax] (partner 0.5 µM)
Outline: as §1

BGJ398 + Trametinib = compound: CCN1CCN(c2ccc(Nc3cc(N(C)C(=O)Nc4c(Cl)c(OC)cc(OC)c4Cl)ncn3)cc2)CC1 [BGJ398] + CC(=O)Nc1cccc(-n2c(=O)n(C3CC3)c(=O)c3c(Nc4ccc(I)cc4F)n(C)c(=O)c(C)c32)c1 [Trametinib] (partner 0.02 µM)
Outline: as §1

[2] = compound: C1=CC2=NC=CN=C2C=C1/C=C/3\C(=O)NC(=O)S3 + COc1cc2c(Oc3ccc(NC(=O)C4(C(=O)Nc5ccc(F)cc5)CC4)cc3F)ccnc2cc1OCCCN1CCOCC1 [Foretinib] (partner 0.25 µM)
Outline: as §1

Cell Line | relative viability ([1]; first compound 0.02 µM) | relative viability ([1]; first compound 0.06325 µM) | relative viability ([1]; first compound 0.2 µM) | relative viability ([1]; first compound 0.6325 µM) | relative viability ([1]; first compound 2 µM) | relative viability (BGJ398 + Navitoclax; first compound 0.01 µM) | relative viability (BGJ398 + Navitoclax; first compound 0.03162 µM) | relative viability (BGJ398 + Navitoclax; first compound 0.1 µM) | relative viability (BGJ398 + Navitoclax; first compound 0.3162 µM) | relative viability (BGJ398 + Navitoclax; first compound 1 µM) | relative viability (BGJ398 + Trametinib; first compound 0.01 µM) | relative viability (BGJ398 + Trametinib; first compound 0.03162 µM) | relative viability (BGJ398 + Trametinib; first compound 0.1 µM) | relative viability (BGJ398 + Trametinib; first compound 0.3162 µM) | relative viability (BGJ398 + Trametinib; first compound 1 µM) | relative viability ([2]; first compound 0.02 µM) | relative viability ([2]; first compound 0.06325 µM) | relative viability ([2]; first compound 0.2 µM) | relative viability ([2]; first compound 0.6325 µM) | relative viability ([2]; first compound 2 µM)
RERF-LC-KJ | 0.714 | 0.717 | 0.689 | 0.63 | 0.635 | 0.98 | 1.09 | 0.901 | 1.06 | 0.936 | 0.854 | 0.864 | 0.962 | 0.87 | 0.953 | 0.831 | 0.825 | 0.874 | 0.814 | 0.695
SK-LU-1 | 0.809 | 0.818 | 0.881 | 0.777 | 0.72 | 0.832 | 0.988 | 0.865 | 1.02 | 0.908 | 0.446 | 0.669 | 0.454 | 0.52 | 0.229 | 0.861 | 0.968 | 0.751 | 0.785 | 0.791
SK-MES-1 | 0.925 | 0.998 | 1.08 | 1.08 | 0.829 | 1.27 | 1.32 | 1.24 | 1.33 | 1.24 | 0.525 | 0.591 | 0.534 | 0.574 | 0.63 | 0.875 | 1.05 | 0.976 | 0.804 | 0.669
SW 1573 | 0.519 | 1.09 | 0.658 | 0.868 | 0.444 | 0.82 | 1.22 | 1.05 | 0.981 | 0.91 | 0.477 | 0.587 | 0.455 | 0.448 | 0.47 | 0.893 | 1.22 | 0.911 | 0.804 | 0.487
